Data on seven compounds can be found in patent US11679984B2, “Composite sols” (Prebona AB, priority 2016, dated 2023).

The Aqueous solubility is the dissolved amount per volume that the medium holds.

Test system in the first data set: not given
Test: not given
Particulars: 20° C.; cited from earlier work.
On to Cd(OH)2, for which the Aqueous solubility is 18 µM.

Consider Fe(OH)3, for which the Aqueous solubility was 0.0002 µM.

As for Pb(OH)2, the Aqueous solubility was 6.7 µM.

Consider Fe(OH)2, for which the Aqueous solubility is 5.8 µM.

Take Cu(OH)2: the Aqueous solubility was 0.17 µM.

In the case of Gd(OH)3, the Aqueous solubility was 0.52 µM.

Another data set concerns fungal growth. Kind of data set: Biocidal function: fungal growth on brushed bread slices. In kind it is cell-based, fungi. Particulars: French bread slices brushed on all sides, 14 days, dark, 18-20° C. From the text: In this example the following solutions/materials were used: • 1. Deionized water • 2. Solution CuCl2.2H2O in deionized water, 571 ppm Cu • 3. Solution CuCl2.2H2O in deionized water, 1286 ppm Cu • 4. Cu containing sol of example 5 in Table 7a, 571 ppm Cu • 5. Cu containing sol of example 6 in Table 7a, 1286 ppm Cu
Slices of French bread from a local baker were used as substrates for fungal growth. The bread slices were as brushed on all sides with solutions 1-5. The bread slices on dinner plates were put in plastic bags (one slice on a plate to a bag), which were in a dark, closed room where the temperature varied between 18 and 20° C. over the day. After 14 days, the untreated bread slice was severely befouled and the slice seemed to be completely invaded by fungi.
For the compound `O.O.[Cl-].[Cl-].[Cu+2]` [Cu solution containing 1286 ppm Cu, CuCl2.2H2O], the “Fungal growth on treated bread slice” value is recorded as “Only little fungal growth”.
